In patent US20090117563A1, “Identification of TRPML3 (MCOLN3) as a Salty Taste Receptor and Use in Assays for Identifying Taste (Salty) Modulators and/or Therapeutics that Modulate Sodium Transport, Absorption or Excretion and/or Aldosterone and/or Vasopressin Production or Release” (priority 2007, published 2009):

Target: T1, A419P TRPML3 (Homo sapiens, UniProt Q8TDD5, A419P)
T1 construct: expressed in transfected cells
T1 sequence (Q8TDD5 1-553 A419P): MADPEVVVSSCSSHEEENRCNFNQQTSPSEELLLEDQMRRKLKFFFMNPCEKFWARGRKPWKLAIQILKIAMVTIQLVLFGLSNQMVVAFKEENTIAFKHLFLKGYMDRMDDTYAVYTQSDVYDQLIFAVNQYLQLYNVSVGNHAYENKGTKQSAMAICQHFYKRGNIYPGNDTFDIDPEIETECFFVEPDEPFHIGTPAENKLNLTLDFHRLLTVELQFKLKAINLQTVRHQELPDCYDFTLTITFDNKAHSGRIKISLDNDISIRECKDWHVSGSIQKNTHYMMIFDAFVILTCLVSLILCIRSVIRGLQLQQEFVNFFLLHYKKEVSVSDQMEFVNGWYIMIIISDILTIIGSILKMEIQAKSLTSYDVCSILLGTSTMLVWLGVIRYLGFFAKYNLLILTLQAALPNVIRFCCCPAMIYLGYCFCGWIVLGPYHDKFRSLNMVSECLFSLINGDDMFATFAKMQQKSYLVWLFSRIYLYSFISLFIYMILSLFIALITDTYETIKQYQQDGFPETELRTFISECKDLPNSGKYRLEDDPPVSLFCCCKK
Test: FLIPR membrane potential dye assay, HEK293 cells expressing A419P-TRPML3
Assay type: cell-based
Conditions: for effect on basal fluorescence, dose dependence: increasing concentrations of gadolinium, compared to RFP-transfected cells
From the text: Specific cell-based assays for the discovery of TRPML3 modulators were developed which that could ultimately be used in food and beverages to modulate saltiness perception. A419P-TRPML3 function was monitored in HEK293 cells transiently transfected or transduced with the gene encoding A419P-TRPML3 and using specific membrane potential dyes (FMPs; Molecular Devices).
(§1) HEK293 cells were transiently transfected with RFP, αENaC or A419P-TRPML3 and were loaded with a membrane potential dye (R-8034; Molecular Devices) in HBSS at room temperature for 30 minutes. Membrane potential (fluorescent signal) was monitored on a FLIPR system (Molecular Devices).
(§2) HEK293 cells were transiently transfected with RFP or A419P-TRPML3 and were loaded with a membrane potential dye (R-8034; Molecular Devices) in HBSS at room temperature for 30 minutes. Membrane potential (fluorescent signal) was monitored on a FLIPR system (Molecular Devices).
as §2, with “HBSS, NMDG and increasing concentrations of gadolinium were added to the cells and resulting changes in membrane” for “Membrane”
as §1, with “RFP, A419P-TRPML3 or” for “RFP,”, “plasmid” for “or A419P-TRPML3”, “HBSS (control), 3 mM gadolinium and 30 uM Amiloride were added to the cells and resulting changes in membrane” for “Membrane”

Which results are given for `[Cl][Gd]([Cl])[Cl]` [gadolinium, gadolinium chloride]?
effect on basal fluorescence counts, specificity (3 mM gadolinium, A419P-TRPML3 versus αENaC transfected cells): preferentially reduces basal fluorescence counts; effect on basal fluorescence, dose dependence: significantly reduces the basal fluorescence; effect on basal fluorescence, dose dependence (listed as Gadolinium): reversed the increase in fluorescence in a dose-dependent and specific fashion; effect on basal fluorescence (membrane potential) (transiently transfected HEK293, single addition of gadolinium): significantly reduces the basal fluorescence
